# Paper PMC8073907, “Peptide targeting of lysophosphatidylinositol-sensing GPR55 for osteoclastogenesis tuning” (Cell Communication and Signaling : CCS, 2021)
# Experiments:
# [1] = system: osteoclasts derived from RAW264.7 cells; assay: Osteoclast functional assay (bone resorption on bovine cortical bone slices); assay type: cell-based, murine; settings: 15 ng/mL RANKL, 7 days
# Description: RAW264.7 cells were plated in differentiation medium at a density of 1250 cells/100 µL on 0.2-mm-thick bovine cortical bone slices (BoneSlices.com, Jelling, Denmark) in 96-well plates. Six hours later, 100 µL differentiation medium with RANKL (15 ng/mL, final concentration) was added, in the presence of a carrier or in combination with the GPR55 modulators. The media with the different compounds were replaced every 48 h, for a total of 7 days. At the end of this period, the cells were detached with a 10% bleach solution, and the resorption excavations were visualised by using Toluidine Blue staining (Sigma-Aldrich). Images of the resorption areas were obtained under the microscope (SW380T; Swift Optical Instruments, Inc., TX, USA) using the 10 × objective, and acquired with a digital camera (Swiftcam SC1003; Swift Optical Instruments, Inc.). The total eroded surface underwent blinded quantification using ImageJ (NIH), and was subdivided into pit and trench surfaces. Pits were characterised as round excavations with well-defined edges where the ratio between length and width was < 2.0. Trenches were defined as elongated excavations with well-defined edges whose length was at least twice the wide, and with clear signs of continued resorption. The prevalence of trenches was calculated as a proportion (%) of the trench surface relative to the total eroded surface.
# ssGPR55-Q87A = assay: GPR55-internalisation assay, Q87A mutant (FACS); assay type: cell-based, human; settings: HeLa, 10 µM soybean LPI, 15 min, three independent experiments
# Text: The construct of haemagglutinin (HA)-tagged human GPR55 in pcDNA3 (HA-GPR55) was a gift from Prof. K. Mackie, Indiana University, Bloomington, IN, USA [39], while the construct ss-3 × HA-GPR55 in pcDNA3.1 (ssGPR55) with a triple HA tag at the N-terminus and an optimised signal sequence (ss, derived from amino acids 1–33 of the human growth hormone: […]) for efficient surface expression was from Prof. A. Irving, Dundee University, UK [40]. For both constructs, mutations were introduced by site-directed mutagenesis using QuickChange kits (Stratagene, La Jolla, CA, USA), according to the manufacturer instructions. The primers for the K80A mutation were 5′-[…]-3′ and 5′-[…]-3′ (Tm, 70.6 °C), and for Q87A were 5′-[…]-3′ and 5′-[…]-3′ (Tm, 73.1 °C).
# HeLa cells were plated at 1.5 × 10^5 cells/well in six-well plates in their growth medium without antibiotics. […]
# For the GPR55-internalisation assay, after stimulation, the HeLa cells were washed twice with cold HBSS^++, stained while adhered with the monoclonal anti-HA antibody (1:1000) in PBS plus 3% BSA for 1 h on ice, washed three times with cold PBS, incubated with the Alexa488-tagged anti-mouse antibody (1:800) in PBS plus 3% BSA for 45 min on ice. […] The collected cells were centrifuged at 300×g, suspended in PBS plus 3% BSA, and analysed by FACS.
# RAW264.7 cells = assay: Filamentous actin (phalloidin) FACS analysis of RAW264.7 cells; assay type: cell-based, murine; settings: 10 µM soybean LPI
# Description: For transient interference of Gpr55, RAW264.7 cells were plated at 6 × 10^5 cells/well in six-well plates in growth medium without antibiotics. Twenty-four hours later, the cells were transfected with 250 pmol/well non-targeting small-interfering (si)RNAs (si-NT; siGENOME siRNA Pool #2; D-001206-14; Dharmacon, Chicago, IL, USA) or Gpr55-specific siRNAs (si-GPR55; siGENOME mouse GPR55 SMART pool; M-043590-01; Dharmacon) using Lipofectamine LTX and Plus Reagent, according to the manufacturer instructions. Twenty-four hours later, the cells were plated for the different assays or for RNA extraction. The efficiency of interference was monitored by real-time PCR after 72 h of interference, using the primers listed in the Additional file 1: Table S1. β2-microglobulin was followed as a housekeeping gene.
# Twenty-four hours after plating the RAW264.7 cells at a density of 1.2 × 10^6 cells/well in six-well plates, or 2.5 × 10^5 cells/well in 24-well plates on coverslips, the cells were serum deprived for 2 h and then stimulated while adhered, with LPI in the assay buffer (0.1% faf-BSA, 20 mM HEPES in HBSS^++). Stimulation was blocked by two washes with HBSS^++, and cells on coverslips were processed for immunofluorescence (see below), while the cells in the six-well plates were scraped into cytoskeleton buffer (10 mM 4-morpholineethanesulfonic acid, 150 mM NaCl, 5 mM EGTA, 5 mM MgCl2, 5 mM glucose), for FACS analysis. For the latter, an equal volume of fixation solution (1% Triton X-100, 0.5% glutaraldehyde, in cytoskeleton buffer) was added to the cell suspension and left for 2 min at room temperature. […] Finally, the fixed cells were stained with 33 nM Alexa546-labelled phalloidin for 1 h at room temperature, washed three times (10 min each) with cytoskeleton buffer, suspended in PBS with 3% BSA, and analysed by FACS (FACSCalibur or FACSAria III; Becton Dickinson, Franklin Lakes, NJ).
substance,measurement,setting,value
lysophosphatidylinositol [LPI],effect on relative trench contribution,[1]; 0.5 µM ML-191 or 1 µM 18:0 LPI,did not affect the relative contributions of the trenches
same,increase of total resorbing activity induced by RANKL,"[1]; 1 µM 18:0 LPI, versus RANKL + 0.004% faf-BSA",54%
same,reduction of cell-surface level of receptor,ssGPR55-Q87A,15%
same,"mean phalloidin fluorescence on LPI addition, si-GPR55",RAW264.7 cells; si-GPR55 cells,did not increase further on LPI addition
same,"mean phalloidin fluorescence, si-NT",RAW264.7 cells; si-NT cells,significant increase in the mean phalloidin fluorescence
same,maximal increase in phalloidin mean fluorescence,"RAW264.7 cells; wild-type RAW264.7, 15 min, sub-populations #1 and #2, at least five independent experiments",20%
